{"source": "patent US8835485B2", "about": "“Prevention and treatment of sarcopenia” (PsiOxus Therapeutics Limited, priority 2009, dated 2014)", "key": {"[1]": {"target": "T1, 5-HT1a receptor (Homo sapiens, UniProt P08908)", "T1 sequence (P08908 1-422)": "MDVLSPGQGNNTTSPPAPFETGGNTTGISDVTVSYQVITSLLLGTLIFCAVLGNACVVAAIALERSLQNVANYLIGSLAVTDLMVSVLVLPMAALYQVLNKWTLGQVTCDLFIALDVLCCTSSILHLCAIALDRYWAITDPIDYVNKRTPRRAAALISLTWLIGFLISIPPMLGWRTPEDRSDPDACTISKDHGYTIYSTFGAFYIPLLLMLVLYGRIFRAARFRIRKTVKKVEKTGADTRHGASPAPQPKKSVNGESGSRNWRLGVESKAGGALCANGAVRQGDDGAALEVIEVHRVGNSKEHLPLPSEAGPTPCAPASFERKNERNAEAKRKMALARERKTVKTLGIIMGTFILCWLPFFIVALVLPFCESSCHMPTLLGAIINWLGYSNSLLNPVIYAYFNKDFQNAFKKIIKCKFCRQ", "conditions": "functional tests; cited from earlier work"}, "[2]": {"system": "healthy subjects", "conditions": "cited from earlier work"}, "[3]": {"system": "Old, healthy, male Wistar Han rats", "assay": "S-Pindolol in old (19 month) rats, 28 days: body weight, lean mass, organ weights", "type": "in vivo, rat", "conditions": "3 mg/kg/d", "procedure": "Old, healthy, male Wistar Han rats (age 19 month, at the start of the experiment) were housed in groups of two to three per cage under standard laboratory conditions. Animals were randomized to receive either 3 mg/kg/d S-Pindolol/kg/d (n=8), or placebo (n=14) once daily per gavage for 28 days. Body composition (lean mass) of the animals was analyzed using the EchoMRI-700 system (Echo Medical Systems, Houston, Tex., USA) before treatment, once per week during the study and at the end of the study. Body weight was recorded before treatment, once per week during the study and at the end of study. Organ weights were recorded at the end of study. One tibialis muscle per animals was dried at 60° C. for 48 h."}, "[4]": {"system": "Young, healthy, male Wistar Han rats", "assay": "S-Pindolol in young healthy rats, 16 days: body weight, lean mass, organ weights", "type": "in vivo, rat", "conditions": "for Gastrocnemius organ weight at the end of the study: gavage once daily, placebo 1234 ± 30; for Soleus organ weight at the end of the study / EDL organ weight at the end of the study / Tibialis organ weight at the end of the study: gavage; for Soleus organ weight at the end of the study: placebo 97 ± 2; for EDL organ weight at the end of the study: placebo 104 ± 3; for Tibialis organ weight at the end of the study: placebo 447 ± 9; for EDL percent increase in weight / Soleus percent increase in weight: versus placebo", "procedure": "Young, healthy, male Wistar Han rats (201.8±2.4 g) were housed in groups of two to three per cage under standard conditions. Animals were randomized to receive either 0.3 mg S-Pindolol/kg/d (n=5), 3 mg S-Pindolol/kg/d (n=5) or placebo (n=16) once daily per gavage for 16 days. Body composition (lean mass) of the animals was analyzed using the EchoMRI-700 system (Echo Medical Systems, Houston, Tex., USA) before treatment and at the end of the study. Body weight was recorded before treatment and at the end of study. Organ weights were recorded at the end of study."}}}
{"smiles": "CC(C)NC[C@H](O)COc1cccc2ccccc12", "note": "[(S)-propranolol, (S)-1-isopropylamino-3-(1-naphthyloxy)-2-propanol]", "values": [{"measurement": "Block of the suppressant effects of 5-HT1a agonists on dorsal raphe neuronal firing", "setting": "[1]", "result": "blocked"}]}
{"smiles": "CC(C)NCC(O)COc1cccc2[nH]ccc12", "note": "(racemic) [racemic pindolol]", "values": [{"measurement": "Effect on diastolic blood pressure", "setting": "[2]; healthy subjects, similar dose", "result": "reducing"}]}
{"smiles": "CC(C)NC[C@@H](O)COc1cccc2ccccc12", "note": "[(R)-propranolol]", "values": [{"measurement": "Block of the suppressant effects of 5-HT1a agonists on dorsal raphe neuronal firing", "setting": "[1]", "result": "not"}]}
{"smiles": "CC(C)NC[C@H](O)COc1cccc2[nH]ccc12", "note": "[S-Pindolol, S-(−)-1-(1H-indol-4-yloxy)-3-(1-methylethylamino)propan-2-ol]", "values": [{"measurement": "Tibialis organ weight at the end of the study", "setting": "[3]; gavage, old rats, placebo 827 ± 34", "result": "1034 ± 46", "unit": "mg"}, {"measurement": "Gastrocnemius organ weight at the end of the study", "setting": "[3]; gavage, old rats, placebo 2283 ± 78", "result": "2914 ± 133", "unit": "mg"}, {"measurement": "Lean body mass (i.e. muscle mass)", "setting": "[3]; old rats, EchoMRI, FIGS. 7, 8", "result": "increased"}, {"measurement": "Body weight (change during the treatment period)", "setting": "[3]; old rats, FIGS. 4, 5", "result": "significantly increased"}, {"measurement": "Tibialis dry mass", "setting": "[3]; old rats, dried at 60° C. for 48 h, placebo 227 ± 9", "result": "276 ± 12", "unit": "mg"}, {"measurement": "Tibialis dry mass", "setting": "[3]; old rats, placebo 27.89 ± 0.78", "result": "27.12 ± 0.46", "unit": "%"}, {"measurement": "Tibialis water", "setting": "[3]; old rats, placebo 72.1 ± 0.78", "result": "72.88 ± 0.46", "unit": "%"}, {"measurement": "Soleus organ weight at the end of the study", "setting": "[3]; old rats, placebo 181 ± 11", "result": "173 ± 9", "unit": "mg"}, {"measurement": "EDL organ weight at the end of the study", "setting": "[3]; old rats, placebo 197 ± 9", "result": "236 ± 5", "unit": "mg"}, {"measurement": "Lean mass increase compared to baseline", "setting": "[3]; senile rats, placebo lost 1.5%", "result": 12.7, "unit": "%"}, {"measurement": "Gastrocnemius organ weight at the end of the study", "setting": "[4]; 0.3 mg/kg/d", "result": "1420 ± 35", "unit": "mg"}, {"measurement": "Soleus organ weight at the end of the study", "setting": "[4]; 0.3 mg/kg/d", "result": "107 ± 2", "unit": "mg"}, {"measurement": "EDL organ weight at the end of the study", "setting": "[4]; 0.3 mg/kg/d", "result": "124 ± 6", "unit": "mg"}, {"measurement": "Tibialis organ weight at the end of the study", "setting": "[4]; 0.3 mg/kg/d", "result": "526 ± 15", "unit": "mg"}, {"measurement": "EDL percent increase in weight", "setting": "[4]; 0.3 mg/kg/d", "result": "+19.2%"}, {"measurement": "Soleus percent increase in weight", "setting": "[4]; 0.3 mg/kg/d", "result": "+10.3%"}, {"measurement": "Gastrocnemius organ weight at the end of the study", "setting": "[4]; 3 mg/kg/d", "result": "1492 ± 37", "unit": "mg"}, {"measurement": "Soleus organ weight at the end of the study", "setting": "[4]; 3 mg/kg/d", "result": "103 ± 3", "unit": "mg"}, {"measurement": "EDL organ weight at the end of the study", "setting": "[4]; 3 mg/kg/d", "result": "126 ± 4", "unit": "mg"}, {"measurement": "Tibialis organ weight at the end of the study", "setting": "[4]; 3 mg/kg/d", "result": "535 ± 22", "unit": "mg"}, {"measurement": "EDL percent increase in weight", "setting": "[4]; 3 mg/kg/d", "result": "+21.1%"}, {"measurement": "Soleus percent increase in weight", "setting": "[4]; 3 mg/kg/d", "result": "+6.2%"}, {"measurement": "Lean body mass (i.e. muscle mass)", "setting": "[4]; 0.3 and 3 mg/kg/d, EchoMRI, FIG. 2", "result": "dose dependently increased"}, {"measurement": "Body weight (weight gain during treatment)", "setting": "[4]; high dose (3 mg/kg/d), FIG. 1, p=0.0002 vs placebo", "result": "significantly increased"}, {"measurement": "Alteration in blood pressure", "setting": "[2]; in vivo", "result": "no alteration"}]}
